Laboratory results reported in the supplement of paper PMC11208160.

Test: recombinant UMI read abundance after kanamycin selection (control-corrected) (log10(CPM+1)); higher = more efficient recombination; extreme values may be limits of the assay; sequences stand for … in AGTGCAGAGAAAATCGGCCAGTTTTCTCTGCCTGCAGTCCGCATGCCGTGGGACCCCTTGGGTTCTAACCTGTTGCCTAGATTTATGCAGCGGACTGCCTTTCTCCCAAAGTGATAAACCGG…AGGTTGGTTTCACT; site = the 11-nt donor
Outline: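 In a pooled Escherichia coli screen for the IS621 bridge recombinase, donor and donor-binding-loop pairs were each placed with a 12-nt UMI on a plasmid bearing a promoterless kanamycin gene. This library was co-electroporated with a target plasmid encoding a fixed target and T7-inducible recombinase, and cells were plated either on IPTG (0.07 mM) plus kanamycin or without selection, in two replicates each. Recombinant UMIs were PCR-amplified across the donor–target junction and sequenced, and counts were converted to CPM, averaged over replicates, scaled by control-derived factors and reported as log10(CPM+1).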
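Further: IS621 bridge recombinase in Escherichia coli cells against a fixed T5 target plasmid.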

| Sequence | recombinant UMI read abundance (log10) |
| --- | --- |
| CTAGTATCATGGACCGGTTTTCCCGGTAATCCGTATTTGAC (site CTATTATCTGC) | 0 |
| CTAGTATCATGGACCGGTTTTCCCGGTAATCCGTATTTGAC (site CTATTATCTGT) | 0.701 |
| CTAGTATCATGGACCGGTTTTCCCGGTAATCCGTATTTGAC (site CTATTGTCTGT) | 0 |
| CTAGTATCATGGACCGGTTTTCCCGGTAATCCGTATTTGAC (site CTCATATCTGT) | 0.632 |
| CTAGTATCATGGACCGGTTTTCCCGGTAATCCGTATTTGAC (site CTCGAATCTGT) | 0 |
| CTAGTATCATGGACCGGTTTTCCCGGTAATCCGTATTTGAC (site CTCGTAACTGT) | 0 |
| CTAGTATCATGGACCGGTTTTCCCGGTAATCCGTATTTGAC (site CTCGTATCTCT) | 0.007 |
| CTAGTATCATGGACCGGTTTTCCCGGTAATCCGTATTTGAC (site CTCGTATCTGA) | 0 |
| CTAGTATCATGGACCGGTTTTCCCGGTAATCCGTATTTGAC (site CTCGTATCTGT) | 0.0723 |
| CTAGTATCATGGACCGGTTTTCCCGGTAATCCGTATTTGAC (site CTCGTCTCTGT) | 0 |
| CTAGTATCATGGACCGGTTTTCCCGGTAATCCGTATTTGAC (site CTGCTATCTGT) | 0 |
| CTAGTATCATGGACCGGTTTTCCCGGTAATCCGTATTTGAC (site CTGGCATCTGT) | 0 |
| CTAGTATCATGGACCGGTTTTCCCGGTAATCCGTATTTGAC (site CTGGTAGCTGT) | 0 |
| CTAGTATCATGGACCGGTTTTCCCGGTAATCCGTATTTGAC (site CTGGTATCTGG) | 0 |
| CTAGTATCATGGACCGGTTTTCCCGGTAATCCGTATTTGAC (site CTGGTATCTGT) | 0 |
| CTAGTATCATGGACCGGTTTTCCCGGTAATCCGTATTTGAC (site CTGGTATCTTT) | 0.0145 |
| CTAGTATCATGGACCGGTTTTCCCGGTAATCCGTATTTGAC (site CTGGTTTCTGT) | 0 |
| CTAGTATCATGGACCGGTTTTCCCGGTAATCCGTATTTGAC (site CTTGGATCTGT) | 0 |
| CTAGTATCATGGACCGGTTTTCCCGGTAATCCGTATTTGAC (site CTTGTACCTGT) | 0.169 |
| CTAGTATCATGGACCGGTTTTCCCGGTAATCCGTATTTGAC (site CTTGTATCTAT) | 0 |
| CTAGTATCATGGACCGGTTTTCCCGGTAATCCGTATTTGAC (site CTTGTATCTGC) | 0 |
| CTAGTATCATGGACCGGTTTTCCCGGTAATCCGTATTTGAC (site CTTGTATCTGT) | 1.57 |
| CTAGTATCATGGACCGGTTTTCCCGGTAATCCGTATTTGAC (site CTTGTGTCTGT) | 0 |
| CTAGTATCATGGACCGGTTTTCCCGGTAATCCGTATTTGAC (site CTTTTATCTGT) | 1 |
| CTAGTATCATGGACCGGTTTTCCCGGTAATCCGTATTTGAC (site GGAGTATCTGT) | 2.07 |

| Sequence | recombinant UMI read abundance (log10) |
| --- | --- |
| CTAGTATCATGGACCGGTTTTCCCGGTAATCCGTATTTGAC (site GTAGGATCTGT) | 0.00691 |
| CTAGTATCATGGACCGGTTTTCCCGGTAATCCGTATTTGAC (site GTAGTACCTGT) | 0 |
| CTAGTATCATGGACCGGTTTTCCCGGTAATCCGTATTTGAC (site GTAGTATCTAT) | 0 |
| CTAGTATCATGGACCGGTTTTCCCGGTAATCCGTATTTGAC (site GTAGTATCTGC) | 0 |
| CTAGTATCATGGACCGGTTTTCCCGGTAATCCGTATTTGAC (site GTAGTATCTGT) | 0 |
| CTAGTATCATGGACCGGTTTTCCCGGTAATCCGTATTTGAC (site GTAGTGTCTGT) | 0.0419 |
| CTAGTATCATGGACCGGTTTTCCCGGTAATCCGTATTTGAC (site GTATTATCTGT) | 0 |
| CTAGTATCATGGACCGGTTTTCCCGGTAATCCGTATTTGAC (site GTTGTATCTGT) | 0.0569 |
| CTAGTATCATGGACCGGTTTTCCCGGTAATCCGTATTTGAC (site TAAGTATCTGT) | 0 |
| CTAGTATCATGGACCGGTTTTCCCGGTAATCCGTATTTGAC (site TTAATATCTGT) | 0 |
| CTAGTATCATGGACCGGTTTTCCCGGTAATCCGTATTTGAC (site TTAGAATCTGT) | 0 |
| CTAGTATCATGGACCGGTTTTCCCGGTAATCCGTATTTGAC (site TTAGTAACTGT) | 0 |
| CTAGTATCATGGACCGGTTTTCCCGGTAATCCGTATTTGAC (site TTAGTATCTCT) | 0 |
| CTAGTATCATGGACCGGTTTTCCCGGTAATCCGTATTTGAC (site TTAGTATCTGA) | 0 |
| CTAGTATCATGGACCGGTTTTCCCGGTAATCCGTATTTGAC (site TTAGTATCTGT) | 1.71 |
| CTAGTATCATGGACCGGTTTTCCCGGTAATCCGTATTTGAC (site TTAGTCTCTGT) | 0 |
| CTAGTATCATGGACCGGTTTTCCCGGTAATCCGTATTTGAC (site TTCGTATCTGT) | 0 |
| CTAGTATCATGGACCGGTTTTCCCGGTAATCCGTATTTGAT (site CTAGTATCTAT) | 2.21 |
| CTAGTATCATGGACCGGTTTTCCCGGTAATCCGTATTTGAT (site CTAGTATCTCT) | 0.557 |
| CTAGTATCATGGACCGGTTTTCCCGGTAATCCGTATTTGAT (site CTAGTATCTGT) | 1.31 |
| CTAGTATCATGGACCGGTTTTCCCGGTAATCCGTATTTGAT (site CTAGTATCTTT) | 1.07 |
| CTAGTATCATGGACCGGTTTTCCCGGTAATCCGTATTTGCA (site CTAGTATCTGT) | 0.00642 |
| CTAGTATCATGGACCGGTTTTCCCGGTAATCCGTATTTGCA (site CTAGTATCTTG) | 2.72 |
| CTAGTCCCATGGACCGGTTTTCCCGGTAATCCGTATTTGCT (site CTAGTCCCTAG) | 1.79 |
| CTAGTCCCATGGACCGGTTTTCCCGGTAATCCGTATTTGGA (site CTAGTCCCTTC) | 0.281 |

| Sequence | recombinant UMI read abundance (log10) |
| --- | --- |
| CTAGTCGCATGGACCGGTTTTCCCGGTAATCCGTATTTGCG (site ATAGTCGCTCG) | 0.00637 |
| CTAGTCGCATGGACCGGTTTTCCCGGTAATCCGTATTTGCG (site CTAGTCGCTCG) | 0.966 |
| CTAGTCGCATGGACCGGTTTTCCCGGTAATCCGTATTTGCG (site GTAGTCGCTCG) | 0 |
| CTAGTCGCATGGACCGGTTTTCCCGGTAATCCGTATTTGCG (site TTAGTCGCTCG) | 0.0191 |
| CTAGTCTCATGGACCGGTTTTCCCGGTAATCCGTATTTGAC (site CTAGTATCTGT) | 0.627 |
| CTAGTCTCATGGACCGGTTTTCCCGGTAATCCGTATTTGAC (site CTAGTCTCTGT) | 2.93 |
| CTAGTCTCATGGACCGGTTTTCCCGGTAATCCGTATTTGAC (site CTAGTGTCTGT) | 0 |
| CTAGTCTCATGGACCGGTTTTCCCGGTAATCCGTATTTGAC (site CTAGTTTCTGT) | 0.799 |
| CTAGTGTCATGGACCGGTTTTCCCGGTAATCCGTATTTGAC (site CTAGTATCTGT) | 1.23 |
| CTAGTGTCATGGACCGGTTTTCCCGGTAATCCGTATTTGAC (site CTAGTCTCTGT) | 0 |
| CTAGTGTCATGGACCGGTTTTCCCGGTAATCCGTATTTGAC (site CTAGTGTCTGT) | 0 |
| CTAGTGTCATGGACCGGTTTTCCCGGTAATCCGTATTTGAC (site CTAGTTTCTGT) | 0 |
| CTAGTTACATGGACCGGTTTTCCCGGTAATCCGTATTTGTC (site CTAGTTACTGA) | 2.57 |
| CTATAAACATGGACCGGTTTTCCCGGTAATCCGTATTTGGA (site CTATAAACTTC) | 2.34 |
| CTATATGCATGGACCGGTTTTCCCGGTAATCCGTATTTGTA (site CTATATGCTTA) | 2.55 |
| CTATCATCATGGACCGGTTTTCCCGGTAATCCGTATTTGCG (site CGATCATCTAG) | 0 |
| CTATCATCATGGACCGGTTTTCCCGGTAATCCGTATTTGCG (site CTATCATCTCG) | 1.87 |
| CTATGATCATGGACCGGTTTTCCCGGTAATCCGTATTTGCG (site CTATGATCTCG) | 3.16 |
| CTATTACCATGGACCGGTTTTCCCGGTAATCCGTATTTGAC (site CTAGTATCTGT) | 0 |
| CTATTACCATGGACCGGTTTTCCCGGTAATCCGTATTTGAC (site CTATTACCTGT) | 0 |
| CTATTCCCATGGACCGGTTTTCCCGGTAATCCGTATTTGTT (site CTATTCCCTAA) | 1.42 |
| CTCAAGACATGGACCGGTTTTCCCGGTAATCCGTATTTGGG (site CTCAAGACTCC) | 0 |
| CTCATATCATGGACCGGTTTTCCCGGTAATCCGTATTTGTC (site CACATATCTGA) | 0.65 |
| CTCATATCATGGACCGGTTTTCCCGGTAATCCGTATTTGTC (site CCCATATCTGA) | 0.718 |
| CTCATATCATGGACCGGTTTTCCCGGTAATCCGTATTTGTC (site CGCATATCTGA) | 0 |
